Measurements from paper PMC10878086, “An RNA replicon system to investigate promising inhibitors of feline coronavirus” (Journal of Virology, 2024).
Values joined by “and” are separate entries in the source; they are usually repeats but may differ in a detail not shown here. Equal entries are not always repeated. “Also recorded” adds a separate entry of the source. Structures can show the parent of a compound that is named as a salt. Where two headings read alike, the source gives them in different places.

Columns and labels:
[1] = system: serotype I FCoV replicon RNA in BHK-F-Rep cells; assay: microbe, parasite or virus in culture; format: cell-based, feline coronavirus (serotype I FECV field strain); conditions: for IC50: BHK-F-Rep cells, median GFP intensity
Procedure: The BHK-F-Rep cells would specifically allow the evaluation of inhibitors that target viral replication, which includes basic processes such as RNA synthesis and viral polyprotein processing. […] GFP expression was assessed by flow cytometry. […] In addition to GFP detection, immunofluorescence staining of the N-protein was performed as a control of the replication inhibition in an inhibitor experiment (Fig. 2D).
For each inhibitor test, the BHK-F-Rep was cultured in T75 or T150 flasks, washed once with PBS, cells detached with Gibco TrypLE Express (Trypsin; Thermo Fisher Scientific), and then seeded in 12-well plates (25,000 cells/well) in 1 mL/well of cell-culture medium (MEM +10% FBS +50 U/mL Pen/Strep). Directly after seeding, the inhibitor was added to the cells. The plates were incubated for 96 hours at 37°C with 5% CO2.
To assess the GFP expression in BHK and Fcwf-4 cells, the supernatant was removed, the cells were washed once with PBS and then detached with trypsin and transferred to a 96-well plate. The plate was centrifuged at 1,700 rpm for 5 minutes and the supernatant discarded. Cells were once washed again with PBS and again centrifuged at 1,700 rpm for 5 minutes and the supernatant was discarded. For the replicon conditions, the cells were then stained with the LIVE/DEAD Fixable Aqua Dead Cell Stain Kit for 405 nm excitation (Invitrogen) according to the manufacturer’s instructions. As the dead cell control, one of the samples was placed at 60°C for 20 minutes and then stained. After staining, the cells were washed with PBS and centrifuged (1,700 rpm for 5 minutes), and the supernatant was discarded. For the Fcwf-4 cells infected with the recFCoV-GFP, the staining and washing step was not performed. Then, all the cells were washed with PBS before being resuspended in 200 µL PBS and transferred to Falcon 5 mL round-bottom tubes with cell strainer cap (Corning Incorporated) and kept in the dark on ice. Samples were acquired in Cytek Aurora with SpectroFlo Software Version 3.1.0 and analyzed using FlowJo software (FlowJo_v108.1).
Instead, to monitor inhibition, we determined the percent of GFP-positive cells. In either case, the median intensity of the GFP signal or the percentage of GFP-positive cells was normalized to the measurements of untreated conditions, by defining the untreated results of each triplicate as 100%. The value was then subtracted by 100 to get the value representing the percentage of inhibition.
All conditions were tested in triplicates on three different days always including a negative control. Statistical analysis and generation of graphs were performed using GraphPad Prism version 9.3.1 for Windows. The same as CC50, 50% inhibitory concentration (IC50) was determined in GraphPad Prism version 9.3.1 for Windows.

[2] = In vitro cytotoxicity assay (CytoTox-Glo) on BHK-F-Rep cells; format: cell-based, hamster; conditions: hamster
Procedure: (§1) To define cytotoxic concentrations of the individual inhibitors, cytotoxicity assay with the CytoTox-Glo Cytotoxicity Assay (Promega) was performed according to the manufacturer’s instructions. As a positive control, 75 µg/well of cycloheximide was used. The inhibitors were diluted in DMSO to concentrations so that 2 µL/well could be added to reach the tested concentrations. For luminescence detection, a Hidex Sense with the HidexPlateReader Software 1.0.0 was used. Detection parameters were set for luminescence detection with an infrared cutoff of 1 second. As described by Promega, the difference of viable vs dead cells was calculated in Microsoft Excel 2016, and 50% of cytotoxic concentration (CC50) was determined in GraphPad Prism version 9.3.1 for Windows. The data were fitted to a nonlinear regression curve with log(inhibitor) vs normalized response with variable slope.

[3] = Cell viability testing in recFCoV-GFP infected Fcwf-4 cells; format: cell-based; conditions: cat (Felis catus)
Text: Read-out as with the BHK-F-Rep cells done via flow cytometry and detection of GFP-positive cells (relative Inhibition) including IC50 values are shown in black with the left y-axis. As with the BHK-F-Rep cells, data shown on cell viability testing in the recFCoV-GFP infected Fcwf-4 cells are shown in black with the right y-axis including CC50 values. Additional data on viral titers of the recFCoV-GFP infected Fcwf-4 cells treated with the inhibitors and corresponding IC50 values are shown in red. The black and red lines in the graphs represent the mean value of the data collected from three independent experiments of individual drugs or their combination, respectively. The gray and red shaded areas represent the standard error of the mean.
To define cytotoxic concentrations of the individual inhibitors, cytotoxicity assay with the CytoTox-Glo Cytotoxicity Assay (Promega) was performed according to the manufacturer’s instructions. As a positive control, 75 µg/well of cycloheximide was used. […] For luminescence detection, a Hidex Sense with the HidexPlateReader Software 1.0.0 was used. Detection parameters were set for luminescence detection with an infrared cutoff of 1 second. As described by Promega, the difference of viable vs dead cells was calculated in Microsoft Excel 2016, and 50% of cytotoxic concentration (CC50) was determined in GraphPad Prism version 9.3.1 for Windows. […]

[4] = system: recFCoV-GFP (serotype I FIPV strain Black); assay: Inhibitor test with recFCoV-GFP-infected Fcwf-4 cells, viral titers in supernatant (TCID50); format: cell-based, feline infectious peritonitis virus; conditions: read-out: IC50 recFCoV-GFP viral titers
Text: (§2) Finally, we assessed GC376 and Remdesivir individually or in combination in a virus infection system. We used the previously described recombinant recFCoV-GFP that is based on the laboratory-adapted serotype I FIPV strain Black and contains the GFP gene as a replacement for the accessory genes 3a–c ([39]). Using this virus, we could measure inhibition by assessing GFP expression or by virus titration. However, the assessment of GFP expression by measuring the median fluorescent intensity, as we did for BHK-F-rep cells, was not possible since recFCoV-GFP-infected Felis catus whole fetus 4 (Fcwf-4) cells died before the reduction of GFP expression was observable. Instead, we determined the number of GFP-positive cells to monitor inhibition (Fig. 5A through C). In parallel, we determined the virus titers released into the cell culture supernatant from inhibitor-treated and infected cells (Fig. 5A through C). […] The results are shown in Fig. 5C and can be compared with Fig. 4A (BHK-F-Rep inhibition) and IC50 values for the different experimental systems are shown in Table 2. […]
All conditions were tested in triplicates on three different days always including a negative control. […] The selectivity index (SI) was calculated in Microsoft Excel 2016 as follows: SI = CC50/IC50.

[5] = system: recFCoV-GFP (serotype I FIPV strain Black); assay: Inhibitor test with recFCoV-GFP-infected Fcwf-4 cells, flow cytometry of GFP-positive cells; format: cell-based, feline infectious peritonitis virus; conditions: read-out: IC50 recFCoV-GFP flow cytometry
Text: as §2
To assess the GFP expression in BHK and Fcwf-4 cells, the supernatant was removed, the cells were washed once with PBS and then detached with trypsin and transferred to a 96-well plate. […] Samples were acquired in Cytek Aurora with SpectroFlo Software Version 3.1.0 and analyzed using FlowJo software (FlowJo_v108.1). […]

BHK-F-Rep cells = assay: In vitro cytotoxicity assay (CytoTox-Glo) on BHK-F-Rep cells; format: cell-based, hamster
Procedure: as §1

[6] = Alphacoronavirus 1, 96 h, 96 hours, flow cytometry

## CCN(CC)Cc1cc(Nc2ccnc3cc(Cl)ccc23)ccc1O [Amodiaquine, Amodiaquine dihydrochloride]
[1]; 96 hours, flow cytometry, in words
  inhibitory effect on BHK-F-Rep cells: did not observe an inhibitory effect; also recorded: did not show any inhibitory effect
[1]; [6]
  IC50: > 40000 nM
[2]
  CC50: 47200 nM

## CCC(CC)COC(=O)[C@H](C)N[P@](=O)(OC[C@H]1O[C@@](C#N)(c2ccc3c(N)ncnn23)[C@H](O)[C@@H]1O)Oc1ccccc1 [Remdesivir]
[3]
  CC50 at 48 h: > 200000 nM
[2]
  CC50: 99100 nM
[4]; Alphacoronavirus 1, 48 h
  IC50: 1500 nM
[5]; Alphacoronavirus 1, 48 h
  IC50: 1150 nM

## CC(C)C[C@H](NC(=O)OCc1ccccc1)C(=O)N[C@@H](C[C@@H]1CCNC1=O)C(O)S(=O)(=O)[O-].[Na+] (stereo partly drawn) [GC376]
[1]; two consecutive treatments of 96 hours with 20 µM
  GFP expression of BHK-F-Rep cells after treatment (replicon-cured cell line): undetectable

## CC(C)(C)[C@H](NC(=O)C(F)(F)F)C(=O)N1C[C@H]2[C@@H]([C@H]1C(=O)N[C@H](C#N)C[C@@H]1CCNC1=O)C2(C)C [Nirmatrelvir]
[1]; [6]
  IC50: < 1000 nM
[1]; 96 hours, flow cytometry
  IC50: 780 nM
[2]
  CC50: > 200000 nM

## CC(C)C[C@H](NC(=O)OCc1ccccc1)C(=O)N[C@@H](CC1CCNC1=O)C(O)S(=O)(=O)O (stereo partly drawn) [GC376]
[1]; 96 hours, flow cytometry, read-out: IC50
  IC50: < 1000 nM and 990 nM
BHK-F-Rep cells
  CC50: > 200000 nM
[4]; Fcwf-4 cells, MOI 0.01, 48 hours, TCID50 of supernatant
  IC50: 1010 nM
[5]; Fcwf-4 cells, MOI 0.01, 48 hours, GFP-positive cells
  IC50: 840 nM
